Positions of bridges follow the written chain, without caps; N, C: chain ends. Non-standard residues stand in square brackets, D forms with d. Residues, ends and D or L forms follow the SMILES beside them. *: point of attachment. hPhe(3,5-F2-4-CF3) = N[C@@H](CCc1cc(F)c(C(F)(F)F)c(F)c1)C(=O)O; hPhe(3-Cl-4-CF3) = N[C@@H](CCc1ccc(C(F)(F)F)c(Cl)c1)C(=O)O; hPhe(3-F,4-CF3) = N[C@@H](CCc1ccc(C(F)(F)F)c(F)c1)C(=O)O; NMePhe(4-CF3) = CN[C@@H](Cc1ccc(C(F)(F)F)cc1)C(=O)O; hPhe(4-CF3) = N[C@@H](CCc1ccc(C(F)(F)F)cc1)C(=O)O; NMe3Pal(6-Me) = CN[C@@H](Cc1ccc(C)nc1)C(=O)O; NMeAbu(4,4,4-F3) = CN[C@@H](CC(F)(F)F)C(=O)O; NMePhe(4-Cl) = CN[C@@H](Cc1ccc(Cl)cc1)C(=O)O; NMePhe(4-Me) = CN[C@@H](Cc1ccc(C)cc1)C(=O)O; NMeGly(cPent) = CN[C@H](C(=O)O)C1CCCC1; Pro(4,4-F2) = O=C(O)[C@@H]1CC(F)(F)CN1; NMeCha = CN[C@@H](CC1CCCCC1)C(=O)O; NEtLeu = CCN[C@@H](CC(C)C)C(=O)O; NMeChg = CN[C@H](C(=O)O)C1CCCCC1; NMeD = CN[C@@H](CC(=O)O)C(=O)O; CH2CONHtBu = CC(C)(C)NC(=O)C*; NMeL = CN[C@@H](CC(C)C)C(=O)O; NMeV = CN[C@H](C(=O)O)C(C)C; d(β3hA) = C[C@@H](N)CC(=O)O; NMeS = CN[C@@H](CO)C(=O)O; NMeA = CN[C@@H](C)C(=O)O; Piperidide = C1CCN(*)CC1; Pyrrolidide = C1CCN(*)C1; dNMeA = CN[C@H](C)C(=O)O; Ac5c = NC1(C(=O)O)CCCC1; Aze = O=C(O)[C@@H]1CCN1; X76 = Clc1cccc(C*)c1; NEtG = CCNCC(=O)O; Sar = CNCC(=O)O

The target in the test is T1, Kras and SOS1 (biotin-tagged human Kras loaded with GDP, His-tagged human SOS1) (Homo sapiens, UniProt P01116, G12D).
T1 construct: made in house; host or cells: E. coli (stated for Kras only)
T1 sequence (P01116 1-188 isoform P01116-2 G12D): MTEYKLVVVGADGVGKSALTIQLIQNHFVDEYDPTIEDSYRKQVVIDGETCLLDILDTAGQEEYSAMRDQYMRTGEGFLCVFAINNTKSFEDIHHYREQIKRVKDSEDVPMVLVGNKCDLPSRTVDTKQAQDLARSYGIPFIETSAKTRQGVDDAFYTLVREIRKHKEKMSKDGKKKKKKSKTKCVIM
Briefly: Protein-protein interaction inhibition between Kras and SOS1 (KrasGl2D-SOS PPI) using AlphaScreen. To be noted: AlphaScreen; biotin-tagged human Kras loaded with GDP, His-tagged human SOS1; read-out: KRAS G12D-SOS PPI IC50. It counts as binding. The method in brief:
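Energy transfer from nickel-chelate donor beads bound to His-SOS1 to streptavidin acceptor beads bound to biotin-Kras, expressed in E. coli and loaded with GDP after purification, was monitored. Donors were excited at 680 nm; singlet oxygen reaching acceptors gave emission read at 520-620 nm.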
(Bead proximity is the source of the signal in Alpha formats.)
One may read the IC50 as the concentration that gives 50% inhibition. `CC[C@H](C)[C@@H]1NC(=O)[C@H](C)N(C)C(=O)C[C@@H](C(=O)N2CCCCC2)N(C)C(=O)[C@H](C2CCCCC2)N(C)C(=O)C2(CCCC2)NC(=O)[C@@H]2CCCN2C(=O)[C@H](COCc2cccc(Cl)c2)NC(=O)CN(C)C(=O)[C@H](CC2CCCCC2)N(C)C(=O)CN(C)C(=O)CN(C)C1=O` [Compound 2045] ([NMeA]I[Sar][Sar][NMeCha][Sar]S(X76)P[Ac5c][NMeChg][NMeD]-Piperidide; lactam N-11): the concentration for half-maximal inhibition (IC50) amounted to 15 nM.

In the case of `CC[C@H](C)[C@@H]1NC(=O)[C@H](CC(C)C)N(C)C(=O)C[C@@H](C)NC(=O)[C@H](C2CCCC2)N(C)C(=O)C2(CCCC2)NC(=O)[C@@H]2CCCN2C(=O)[C@H](CCc2ccc(C(F)(F)F)c(Cl)c2)NC(=O)[C@H]2CCCN2C(=O)[C@H](Cc2ccc(C)cc2)N(C)C(=O)[C@@H]2CCN2C(=O)CN(C)C1=O` [Compound 1488] (cyclo([Ac5c][NMeGly(cPent)][d(β3hA)][NMeL]I[Sar][Aze][NMePhe(4-Me)][dP][hPhe(3-Cl-4-CF3)]P)), the IC50 amounted to 260 nM.

With `CC[C@H](C)[C@@H]1NC(=O)[C@H](C)N(C)C(=O)C[C@@H](C)NC(=O)[C@H](C(C)C)N(C)C(=O)C2(CCCC2)NC(=O)[C@@H]2CCCN2C(=O)[C@H](CCc2ccc(C(F)(F)F)c(Cl)c2)NC(=O)[C@@H](C)N(C)C(=O)[C@H](CC2CCCCC2)N(C)C(=O)[C@@H]2CCCN2C(=O)CN(CC)C1=O` [Compound 2014] (cyclo([Ac5c][NMeV][d(β3hA)][NMeA]I[NEtG]P[NMeCha][dNMeA][hPhe(3-Cl-4-CF3)]P)), the IC50 was 340 nM.

Turning to `CC[C@H](C)[C@@H]1NC(=O)[C@H](CC(C)C)N(CC)C(=O)C[C@@H](C(=O)N(C)C)N(C)C(=O)[C@H](C2CCCC2)N(C)C(=O)C2(CCCC2)NC(=O)[C@@H]2CCCN2C(=O)[C@H](CCc2ccc(C(F)(F)F)c(F)c2)NC(=O)CN(C)C(=O)[C@H](CC2CCCCC2)N(C)C(=O)[C@@H]2CCN2C(=O)[C@H](C)N(C)C1=O` [Compound 1324] ([NEtLeu]I[NMeA][Aze][NMeCha][Sar][hPhe(3-F,4-CF3)]P[Ac5c][NMeGly(cPent)][NMeD]-NMe2; lactam N-11), the IC50 came out at 1.2 nM.

Take `CC[C@H](C)[C@@H]1NC(=O)[C@H](CC(C)C)N(C)C(=O)C[C@@H](C(=O)N2CCCCC2)N(C)C(=O)[C@H](C2CCCCC2)N(C)C(=O)C2(CCCC2)NC(=O)[C@H](Cc2ccc(C)nc2)N(C)C(=O)[C@H](CCc2ccc(C(F)(F)F)c(Cl)c2)NC(=O)CN(C)C(=O)[C@H](CC2CCCCC2)N(C)C(=O)[C@@H]2CCN2C(=O)CN(C)C1=O` [Compound 786] ([NMeL]I[Sar][Aze][NMeCha][Sar][hPhe(3-Cl-4-CF3)][NMe3Pal(6-Me)][Ac5c][NMeChg][NMeD]-Piperidide; lactam N-11): the IC50 stood at 6 nM.

Consider `COC[C@@H]1NC(=O)[C@H](CC(C)C)N(C)C(=O)C[C@@H](C(=O)N2CCCCC2)N(C)C(=O)[C@H](C2CCCCC2)N(C)C(=O)C2(CCCC2)NC(=O)[C@@H]2CCCN2C(=O)[C@H](CCc2ccc(C(F)(F)F)c(Cl)c2)NC(=O)CN(C)C(=O)[C@H](CC2CCCCC2)N(C)C(=O)CN(C)C(=O)CN(C)C1=O` [Compound 148] ([NMeL]S(Me)[Sar][Sar][NMeCha][Sar][hPhe(3-Cl-4-CF3)]P[Ac5c][NMeChg][NMeD]-Piperidide; lactam N-11), for which the IC50 came out at 1.8 nM.

On to `CC[C@H](C)[C@@H]1NC(=O)[C@H](CC(C)C)N(C)C(=O)C[C@@H](C)NC(=O)[C@H](CC(C)C)N(C)C(=O)C2(CCCC2)NC(=O)[C@@H]2CCCN2C(=O)[C@H](CCc2ccc(C(F)(F)F)cc2)NC(=O)CN(C)C(=O)[C@H](Cc2ccc(Cl)cc2)N(C)C(=O)CN(C)C(=O)CN(C)C1=O` [Compound 258] (cyclo([Ac5c][NMeL][d(β3hA)][NMeL]I[Sar][Sar][NMePhe(4-Cl)][Sar][hPhe(4-CF3)]P)), for which the 50% inhibitory concentration (IC50) came out at 36 nM.

In the case of `CC[C@H](C)[C@@H]1NC(=O)[C@H](CC(C)C)N(C)C(=O)C[C@@H](C(=O)N2CCCCC2)N(C)C(=O)[C@H](C(C)C)N(C)C(=O)C2(CCCC2)NC(=O)[C@@H]2CCCN2C(=O)[C@H](CCc2ccc(C(F)(F)F)c(Cl)c2)NC(=O)CN(C)C(=O)[C@H](CC2CCCCC2)N(C)C(=O)[C@@H]2CCN2C(=O)[C@H](COCC(=O)NC(C)(C)C)N(C)C1=O` [Compound 998] ([NMeL]I[NMeS](CH2CONHtBu)[Aze][NMeCha][Sar][hPhe(3-Cl-4-CF3)]P[Ac5c][NMeV][NMeD]-Piperidide; lactam N-11), the IC50 is 17 nM.

For `CC[C@H](C)[C@@H]1NC(=O)[C@H](CC(F)(F)F)N(C)C(=O)C[C@@H](C(=O)N2CCCC2)N(C)C(=O)[C@H](C2CCCCC2)N(C)C(=O)C2(CCCC2)NC(=O)[C@@H]2CC(F)(F)CN2C(=O)[C@H](CCc2cc(F)c(C(F)(F)F)c(F)c2)NC(=O)CN(C)C(=O)[C@H](Cc2ccc(C(F)(F)F)cc2)N(C)C(=O)CN(C)C(=O)CN(C)C1=O` [Compound 1303] ([NMeAbu(4,4,4-F3)]I[Sar][Sar][NMePhe(4-CF3)][Sar][hPhe(3,5-F2-4-CF3)][Pro(4,4-F2)][Ac5c][NMeChg][NMeD]-Pyrrolidide; lactam N-11), the concentration for half-maximal inhibition (IC50) came out at 0.72 nM.

Source of the values: patent publication US12371454B2, “Cyclic peptide compound having Kras inhibitory action” (priority 2019, dated 2025).
